{
  "source": "patent US20140288136A1",
  "about": "“METHODS AND USES OF CYTOCHROME P450 INHIBITORS” (ANGION BIOMEDICA CORP, priority 2009, published 2014)",
  "origin": "cited, not measured here",
  "tested_on": "hepatitis C",
  "conditions": "chronic hepatitis C infection",
  "note": "Like-named read-outs stand apart in the source and are kept apart here.",
  "data": [
    {"substance": "interferon", "values": [
      {"measurement": "response", "setting": "in combination with ribavirin", "value": "~50", "unit": "%"},
      {"measurement": "response", "setting": "used alone", "value": "~20", "unit": "%"}
    ]}
  ]
}
